This is an account of results in publication PMC9940855, “First-in-Class Dual Hybrid Carbonic Anhydrase Inhibitors and Transient Receptor Potential Vanilloid 1 Agonists Revert Oxaliplatin-Induced Neuropathy” (Journal of Medicinal Chemistry, 2023).

One experiment has as its target T1, hCA IX (Homo sapiens, UniProt Q16790).
T1 construct: made in house
The class given is biochemical.

For the next experiment, the target named is hCA II (Homo sapiens, UniProt P00918). Particulars: read-out: KI hCA II; stopped-flow CO2 hydrase assay; mean from three different assays, errors ±5–10%.
Another experiment deals with hCA IV (Homo sapiens, UniProt P22748). Particulars: read-out: KI hCA IV; stopped-flow CO2 hydrase assay; mean from three different assays, errors ±5–10%.
Sequence of hCA IV (P22748 19-312): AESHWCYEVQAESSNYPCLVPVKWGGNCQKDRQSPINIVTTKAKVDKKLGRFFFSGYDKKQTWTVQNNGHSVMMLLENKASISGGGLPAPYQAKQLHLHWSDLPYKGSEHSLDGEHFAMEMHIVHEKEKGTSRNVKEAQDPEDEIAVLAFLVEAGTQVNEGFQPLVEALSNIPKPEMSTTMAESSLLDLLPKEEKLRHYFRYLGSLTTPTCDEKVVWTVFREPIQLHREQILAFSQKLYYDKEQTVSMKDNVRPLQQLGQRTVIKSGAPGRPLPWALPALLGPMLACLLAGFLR
The target in a further experiment is hCA VII (Homo sapiens, UniProt P43166). Particulars: read-out: KI hCA VII; stopped-flow CO2 hydrase assay; mean from three different assays, errors ±5–10%.
Sequence of hCA VII (P43166 whole entry): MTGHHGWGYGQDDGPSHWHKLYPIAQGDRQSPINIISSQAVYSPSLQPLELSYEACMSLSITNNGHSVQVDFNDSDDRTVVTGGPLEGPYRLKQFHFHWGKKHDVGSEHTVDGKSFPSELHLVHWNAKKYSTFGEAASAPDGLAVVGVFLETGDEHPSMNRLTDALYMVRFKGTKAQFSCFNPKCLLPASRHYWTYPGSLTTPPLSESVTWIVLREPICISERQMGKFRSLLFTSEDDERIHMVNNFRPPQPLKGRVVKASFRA
The next experiment concerns the target hCA XII (Homo sapiens, UniProt O43570). Conditions: read-out: KI hCA XII; stopped-flow CO2 hydrase assay; mean from three different assays, errors ±5–10%.
The target in the next experiment is hCA I (Homo sapiens, UniProt P00915). Conditions: read-out: KI hCA I; stopped-flow CO2 hydrase assay; mean from three different assays, errors ±5–10%.
Sequence of hCA I (P00915 whole entry): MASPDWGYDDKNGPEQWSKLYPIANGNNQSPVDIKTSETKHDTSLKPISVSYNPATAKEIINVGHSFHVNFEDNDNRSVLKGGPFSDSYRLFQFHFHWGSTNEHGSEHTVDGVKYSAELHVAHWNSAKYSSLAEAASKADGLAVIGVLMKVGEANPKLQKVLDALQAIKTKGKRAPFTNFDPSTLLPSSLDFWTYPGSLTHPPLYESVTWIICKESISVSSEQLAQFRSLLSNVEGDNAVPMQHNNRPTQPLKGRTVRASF

Sequence of hCA XII (O43570 25-354): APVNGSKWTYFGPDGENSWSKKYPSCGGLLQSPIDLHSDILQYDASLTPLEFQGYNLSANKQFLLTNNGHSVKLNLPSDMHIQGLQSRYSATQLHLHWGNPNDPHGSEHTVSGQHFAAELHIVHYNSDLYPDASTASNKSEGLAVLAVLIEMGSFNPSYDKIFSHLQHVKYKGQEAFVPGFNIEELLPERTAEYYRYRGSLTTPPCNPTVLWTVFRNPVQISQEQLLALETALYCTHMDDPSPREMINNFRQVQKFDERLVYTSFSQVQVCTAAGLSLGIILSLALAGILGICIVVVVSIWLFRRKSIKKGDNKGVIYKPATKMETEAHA

`NS(=O)(=O)c1ccc(N2CC[C@H](NC(=O)Nc3ccc(F)cc3)C2)nc1` [7b, (S)-6-(3-(3-(4-Fluorophenyl)ureido)pyrrolidin-1-yl)pyridine-3-sulfonamide]: the Ki at hCA IX turned out to be 20.2 nM; at hCA II, 187 nM; on hCA IV, 8240 nM; at hCA VII, 12.1 nM; at hCA XII it was 50.3 nM.

Turning to `NS(=O)(=O)c1ccc(N2CC[C@H](NC(=O)Nc3ccc(Cl)c(Cl)c3)C2)nc1` [14b, (S)-6-(3-(3-(3,4-Dichlorophenyl)ureido)pyrrolidin-1-yl)pyridine-3-sulfonamide], the Ki on hCA II amounted to 556 nM; at hCA IV, 2530 nM; on hCA VII, 12.1 nM; at hCA XII it was 44.6 nM.

In the case of `NS(=O)(=O)c1ccc(N2CC[C@H](NC(=O)Nc3ccc4c(c3)OCCO4)C2)nc1` [15b, (S)-6-(3-(3-(2,3-Dihydrobenzo[b][1,4]dioxin-6-yl)ureido)pyrrolidin-1-yl)pyridine-3-sulfonamide], the Ki on hCA IX turned out to be 82 nM; on hCA I, 545 nM; at hCA II it was 400 nM; at hCA IV, 5720 nM; at hCA VII it was 29.5 nM; on hCA XII, 62.9 nM.

As to `NS(=O)(=O)c1ccc(N2CC[C@H](NC(=O)Nc3ccc([N+](=O)[O-])cc3)C2)nc1` [19b, (S)-6-(3-(3-(4-Nitrophenyl)ureido)pyrrolidin-1-yl)pyridine-3-sulfonamide], the Ki was found to be 67.5 nM at hCA IX; 800 nM on hCA I; 525 nM on hCA II; 8.2 nM at hCA VII; 8.5 nM at hCA XII.

On to `NS(=O)(=O)c1ccc(N2CC[C@@H](NC(=O)Nc3ccc(C(F)(F)F)cc3)C2)nc1` [20a, (R)-6-(3-(3-(4-(Trifluoromethyl)phenyl)ureido)pyrrolidin-1-yl)pyridine-3-sulfonamide], for which the Ki was 409 nM at hCA II and 44.2 nM at hCA XII.

With `NS(=O)(=O)c1ccc(N2CC[C@H](NC(=O)Nc3ccc(C(F)(F)F)cc3)C2)nc1` [20b, (S)-6-(3-(3-(4-(Trifluoromethyl)phenyl)ureido)pyrrolidin-1-yl)pyridine-3-sulfonamide], the inhibitory constant (Ki) at hCA II turned out to be 35.3 nM; on hCA XII, 48.7 nM.

For the compound `NS(=O)(=O)c1ccc(N2CC[C@H](NC(=S)Nc3ccccc3F)C2)nc1` [21b, (S)-6-(3-(3-(2-Fluorophenyl)thioureido)pyrrolidin-1-yl)pyridine-3-sulfonamide], the Ki on hCA IX is 7.2 nM; at hCA I, 68.7 nM; on hCA II it was 31.3 nM; at hCA IV, 843 nM; on hCA XII it was 41 nM.

For the compound `NS(=O)(=O)c1ccc(N2CC[C@H](NC(=O)Nc3c(F)cc(F)cc3Br)C2)nc1` [22b, (S)-6-(3-(3-(2-Bromo-4,6-difluorophenyl)ureido)pyrrolidin-1-yl)pyridine-3-sulfonamide], the Ki at hCA II turned out to be 482 nM; at hCA IV, 8200 nM; at hCA VII, 14 nM; on hCA XII it was 8.2 nM.

As to `NS(=O)(=O)c1ccc(N2CC[C@@H](NC(=O)NS(=O)(=O)c3ccccc3Cl)C2)nc1` [25a, (R)-6-(3-(3-((2-Chlorophenyl)sulfonyl)ureido)pyrrolidin-1-yl)pyridine-3-sulfonamide], the Ki at hCA IX is 9.2 nM; on hCA I it was 72.3 nM; at hCA II, 15.4 nM; at hCA IV it was 704 nM; on hCA VII it was 30.1 nM.

For `NS(=O)(=O)c1ccc(N2CC[C@H](NC(=O)NS(=O)(=O)c3ccccc3Cl)C2)nc1` [25b, (S)-6-(3-(3-((2-Chlorophenyl)sulfonyl)ureido)pyrrolidin-1-yl)pyridine-3-sulfonamide], the Ki at hCA IX amounted to 9.7 nM; at hCA I, 89.2 nM; at hCA II it was 38.5 nM; at hCA IV, 911 nM; at hCA VII, 46.4 nM.

With `NS(=O)(=O)c1cccc(NC(=O)N[C@H]2CCN(c3ccc(C(F)(F)F)cn3)C2)c1` [46b, (S)-3-(3-(1-(5-(Trifluoromethyl)pyridin-2-yl)pyrrolidin-3-yl)ureido)benzenesulfonamide], the Ki at hCA I came to 306 nM; at hCA II, 8.9 nM; on hCA XII, 8.9 nM.
